Reference: PubChem BioAssay AID212 (DTP/NCI, 2004)
Where “and” joins values, the source holds several entries; their conditions need not be identical. Equal entries are not always repeated. Inconclusive results are not listed.

Tested on: BDF1 mice, colon carcinoma 38 sc, T/C %
Assay: NCI In Vivo Anticancer Drug Screen. Data for tumor model Colon Carcinoma 38 (subcutaneous) in B6D2F1 (BDF1) mice
How it was run: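 T/C readout: treated group (T) measurement over vehicle control group (C) measurement. Endpoint is survival or tumor size in mice bearing a transplanted tumor.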

`Cc1ncc([N+](=O)[O-])n1CCO` was tested, and the T/C (endpoint: median tumor weight (est.), dose: 37.5 mg/kg/injection, schedule: Q01DX005 (ip), vehicle: Klucel (hydroxypropylcellulose) (HPC), higher = larger tumour) was 78 % of control, the T/C (endpoint: median tumor weight (est.), dose: 37.5 mg/kg/injection, schedule: Q04DX003 (ip), vehicle: Klucel (hydroxypropylcellulose) (HPC), higher = larger tumour) was 88 % of control and the T/C (endpoint: median tumor weight (est.), dose: 75.0 mg/kg/injection, schedule: Q01DX005 (ip), vehicle: Klucel (hydroxypropylcellulose) (HPC), higher = larger tumour) was 61 % of control. For the same compound, the T/C (endpoint: median tumor weight (est.), dose: 75.0 mg/kg/injection, schedule: Q04DX003 (ip), vehicle: Klucel (hydroxypropylcellulose) (HPC), higher = larger tumour) was 121 % of control, the T/C (endpoint: median tumor weight (est.), dose: 75.0 mg/kg/injection, schedule: Q07DX002 (ip), vehicle: Klucel (hydroxypropylcellulose) (HPC), higher = larger tumour) was 74 % of control and the T/C (endpoint: median tumor weight (est.), dose: 150.0 mg/kg/injection, schedule: Q01DX005 (ip), vehicle: Klucel (hydroxypropylcellulose) (HPC), higher = larger tumour) was 83 % of control. For the same compound, the T/C (endpoint: median tumor weight (est.), dose: 150.0 mg/kg/injection, schedule: Q04DX003 (ip), vehicle: Klucel (hydroxypropylcellulose) (HPC), higher = larger tumour) was 80 % of control, the T/C (endpoint: median tumor weight (est.), dose: 150.0 mg/kg/injection, schedule: Q07DX002 (ip), vehicle: Klucel (hydroxypropylcellulose) (HPC), higher = larger tumour) was 156 % of control and the T/C (endpoint: median tumor weight (est.), dose: 300.0 mg/kg/injection, schedule: Q01DX005 (ip), vehicle: Klucel (hydroxypropylcellulose) (HPC), higher = larger tumour) was 93 % of control. The T/C (endpoint: median tumor weight (est.), dose: 300.0 mg/kg/injection, schedule: Q04DX003 (ip), vehicle: Klucel (hydroxypropylcellulose) (HPC), higher = larger tumour) was 75 % of control, the T/C (endpoint: median tumor weight (est.), dose: 300.0 mg/kg/injection, schedule: Q07DX002 (ip), vehicle: Klucel (hydroxypropylcellulose) (HPC), higher = larger tumour) was 103 % of control and the T/C (endpoint: median tumor weight (est.), dose: 600.0 mg/kg/injection, schedule: Q01DX005 (ip), vehicle: Klucel (hydroxypropylcellulose) (HPC), higher = larger tumour) was 105 % of control. For the same compound, the T/C (endpoint: median tumor weight (est.), dose: 600.0 mg/kg/injection, schedule: Q07DX002 (ip), vehicle: Klucel (hydroxypropylcellulose) (HPC), higher = larger tumour) was 99 % of control.
In the case of `COc1ccc(-c2cc(=O)c3cccc(CC(=O)O)c3o2)cc1OC`, the T/C (endpoint: median tumor weight (est.), dose: 25.0 mg/kg/injection, schedule: Q07DX002 (ip), vehicle: Klucel (hydroxypropylcellulose) (HPC), higher = larger tumour) was 106 % of control, the T/C (endpoint: median tumor weight (est.), dose: 100.0 mg/kg/injection, schedule: Q07DX002 (ip), vehicle: Klucel (hydroxypropylcellulose) (HPC), higher = larger tumour) was 117 % of control and the T/C (endpoint: median tumor weight (est.), dose: 200.0 mg/kg/injection, schedule: Q07DX002 (ip), vehicle: Klucel (hydroxypropylcellulose) (HPC), higher = larger tumour) was 82 % of control.
With `NC(C/[N+]([O-])=N/O)C(=O)O` (centres undefined) the T/C (endpoint: median survival time, dose: 52.7 mg/kg/injection, schedule: Q04DX005 (ip), vehicle: alkali diluted with saline, higher = longer survival) was 109 % of control, the T/C (endpoint: median survival time, dose: 79.0 mg/kg/injection, schedule: Q04DX005 (ip), vehicle: alkali diluted with saline, higher = longer survival) was 86 % of control and 88 % of control and the T/C (endpoint: median survival time, dose: 119.0 mg/kg/injection, schedule: Q04DX005 (ip), vehicle: alkali diluted with saline, higher = longer survival) was 109 % of control and 116 % of control. The T/C (endpoint: median survival time, dose: 178.0 mg/kg/injection, schedule: Q04DX005 (ip), vehicle: alkali diluted with saline, higher = longer survival) was 100 % of control and 102 % of control, the T/C (endpoint: median survival time, dose: 267.0 mg/kg/injection, schedule: Q04DX005 (ip), vehicle: alkali diluted with saline, higher = longer survival) was 93 % of control and 94 % of control and the T/C (endpoint: median survival time, dose: 400.0 mg/kg/injection, schedule: Q04DX005 (ip), vehicle: alkali diluted with saline, higher = longer survival) was 95 % of control. The T/C (endpoint: median survival time, dose: 600.0 mg/kg/injection, schedule: Q04DX005 (ip), vehicle: alkali diluted with saline, higher = longer survival) was 79 % of control, the T/C (endpoint: median tumor weight (est.), dose: 32.0 mg/kg/injection, schedule: Q07DX003 (ip), vehicle: saline, higher = larger tumour) was 108 % of control and the T/C (endpoint: median tumor weight (est.), dose: 64.0 mg/kg/injection, schedule: Q07DX003 (ip), vehicle: saline, higher = larger tumour) was 70 % of control. For the same compound, the T/C (endpoint: median tumor weight (est.), dose: 128.0 mg/kg/injection, schedule: Q07DX003 (ip), vehicle: saline, higher = larger tumour) was 92 % of control, the T/C (endpoint: median tumor weight (est.), dose: 256.0 mg/kg/injection, schedule: Q07DX003 (ip), vehicle: saline, higher = larger tumour) was 100 % of control and the T/C (endpoint: median tumor weight (est.), dose: 512.0 mg/kg/injection, schedule: Q07DX003 (ip), vehicle: saline, higher = larger tumour) was 56 % of control. For the same compound, the T/C (endpoint: median tumor weight (est.), dose: 1024.0 mg/kg/injection, schedule: Q07DX003 (ip), vehicle: saline, higher = larger tumour) was 72 % of control.
With `Nc1cc2c(c[n+](CCCCCCCC[n+]3cc4c5ccccc5c(N)cc4c4ccccc43)c3ccccc23)c2ccccc12` the T/C (endpoint: median tumor weight (est.), dose: 7.5 mg/kg/injection, schedule: Q07DX002 (ip), vehicle: water, higher = larger tumour) was 108 % of control, the T/C (endpoint: median tumor weight (est.), dose: 15.0 mg/kg/injection, schedule: Q07DX002 (ip), vehicle: water, higher = larger tumour) was 82 % of control and the T/C (endpoint: median tumor weight (est.), dose: 30.0 mg/kg/injection, schedule: Q07DX002 (ip), vehicle: water, higher = larger tumour) was 94 % of control. The T/C (endpoint: median tumor weight (est.), dose: 60.0 mg/kg/injection, schedule: Q07DX002 (ip), vehicle: water, higher = larger tumour) was 53 % of control.
In the case of `C1CC[N-]CC1.C1CC[N-]CC1.C1CC[N-]CC1.[Cl][Rh]([Cl])[Cl]`, the T/C (endpoint: median tumor weight (est.), dose: 25.0 mg/kg/injection, schedule: Q07DX002 (ip), vehicle: saline, higher = larger tumour) was 105 % of control, the T/C (endpoint: median tumor weight (est.), dose: 100.0 mg/kg/injection, schedule: Q07DX002 (ip), vehicle: saline, higher = larger tumour) was 120 % of control and 124 % of control and the T/C (endpoint: median tumor weight (est.), dose: 200.0 mg/kg/injection, schedule: Q07DX002 (ip), vehicle: saline, higher = larger tumour) was 92 % of control.
In the case of `CC(=O)OCC12CCC(C)=CC1OC1C(=O)CC2(C)C12CO2` (centres undefined), the T/C (endpoint: median tumor weight (est.), dose: 0.25 mg/kg/injection, schedule: Q07DX002 (ip), vehicle: saline, higher = larger tumour) was 111 % of control, the T/C (endpoint: median tumor weight (est.), dose: 10.0 mg/kg/injection, schedule: Q07DX002 (ip), vehicle: saline, higher = larger tumour) was 155 % of control and the T/C (endpoint: median tumor weight (est.), dose: 20.0 mg/kg/injection, schedule: Q07DX002 (ip), vehicle: saline, higher = larger tumour) was 119 % of control.
